Among the test systems are DU-145 prostate; HCC-2998 colon; NCI-H460 lung; NCI-H522 lung; OVCAR-5 ovarian; RXF 393 renal; SK-MEL-2 melanoma; SW-620 colon; MOLT-4 leukemia; SR leukemia.
Holding throughout (assay): growth of human tumour cells (NCI), 48 h

The structures appear in SMILES notation.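 All cell lines were grown in 96-well plates and treated with compound for 48 hours. GI50: concentration for 50% inhibition of growth. TGI: total growth inhibition.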 Where a SMILES comes first, the peptide text is derived from it. Bridges are numbered along the chain shown (N, C = ends). [ ]: non-standard residue; d: D form. aThr = C[C@H](O)[C@H](N)C(=O)O

As for `Cc1cccc(Cn2cc(CO)c3cnccc32)c1`, the GI50 in the assay on DU-145 prostate was greater than 100 µM; with HCC-2998 colon it was greater than 100 µM; in the assay with NCI-H460 lung it was 57.5 µM; in the assay on NCI-H522 lung, 60.3 µM; in the assay on OVCAR-5 ovarian, greater than 100 µM; with RXF 393 renal, greater than 100 µM. In addition, the GI50 in the assay with SK-MEL-2 melanoma and in the assay on SW-620 colon was greater than 100 µM each time. Also, the TGI in the assay on DU-145 prostate, in the assay on HCC-2998 colon, in the assay with NCI-H460 lung, in the assay with NCI-H522 lung, in the assay on OVCAR-5 ovarian and with RXF 393 renal was greater than 100 µM throughout. In addition, the TGI in the assay with SK-MEL-2 melanoma and in the assay on SW-620 colon was greater than 100 µM in each case.
Turning to `COc1ccc(/C=C2\C(=O)N(NC(C)=O)c3ccccc32)cc1`, the TGI in the assay on HCC-2998 colon, with MOLT-4 leukemia, in the assay with NCI-H460 lung, in the assay with OVCAR-5 ovarian, in the assay with SK-MEL-2 melanoma and in the assay on SW-620 colon was greater than 100 µM throughout.
On to `NC1=NC(Cn2nc(-c3ccccc3)c3ccccc3c2=O)=NNC(=O)N1`, for which the TGI in the assay with HCC-2998 colon, in the assay on MOLT-4 leukemia, in the assay with NCI-H460 lung, in the assay with NCI-H522 lung, in the assay with OVCAR-5 ovarian and with SK-MEL-2 melanoma was greater than 100 µM in each case. Further, the TGI in the assay on SR leukemia and in the assay on SW-620 colon was greater than 100 µM each time.
As to `CC(C)C[C@@H]1NC(=O)[C@@H]2CCCN2C(=O)[C@@H]2CCCN2C(=O)[C@H](CC(C)C)NC(=O)[C@H](CO)NC(=O)[C@H](CCCCN)NC(=O)[C@H]([C@H](C)O)NC(=O)[C@@H]2CSSC[C@@H](NC1=O)C(=O)N[C@@H](Cc1ccccc1)C(=O)N1CCC[C@H]1C(=O)N[C@@H](CC(=O)O)C(=O)NCC(=O)N[C@@H](CCCN=C(N)N)C(=O)N2` (cyclo(C[aThr]KSLPPL[dC]FPDGR); disulfide 1-9), the GI50 with DU-145 prostate, in the assay on HCC-2998 colon, in the assay on MOLT-4 leukemia, in the assay on NCI-H460 lung, in the assay on NCI-H522 lung and in the assay with OVCAR-5 ovarian was greater than 50 µM each time. In addition, the GI50 in the assay with RXF 393 renal, in the assay with SK-MEL-2 melanoma and with SW-620 colon was greater than 50 µM in each case. In addition, the TGI in the assay on DU-145 prostate, in the assay on HCC-2998 colon, in the assay with MOLT-4 leukemia, in the assay with NCI-H460 lung, in the assay with NCI-H522 lung and in the assay on OVCAR-5 ovarian was greater than 50 µM throughout. The TGI with RXF 393 renal, in the assay on SK-MEL-2 melanoma and with SW-620 colon was greater than 50 µM in each case.
Consider `O=C(CCCC(=O)Nc1ccc(Cl)cc1Cl)CC(=O)c1ccc2ccccc2c1`, for which the TGI in the assay with HCC-2998 colon, in the assay on MOLT-4 leukemia, with NCI-H460 lung, in the assay on OVCAR-5 ovarian, in the assay on RXF 393 renal and in the assay with SK-MEL-2 melanoma was greater than 100 µM in each case. Besides, the TGI in the assay with SW-620 colon was greater than 100 µM.
Consider `O=C(NCCc1ccccc1)C1C(=O)C(=O)N(CCc2ccccc2)C1=O` (stereo not drawn), for which the TGI in the assay on MOLT-4 leukemia, in the assay with NCI-H522 lung, in the assay on SK-MEL-2 melanoma, with SR leukemia and in the assay on SW-620 colon was greater than 100 µM throughout.
`O=C(O)CN(CCN(CC(=O)O)CC(=O)O)CC(=O)O.[Mn+2]`: the GI50 in the assay with DU-145 prostate, in the assay on HCC-2998 colon, in the assay with MOLT-4 leukemia, in the assay with NCI-H460 lung, in the assay on NCI-H522 lung and in the assay on OVCAR-5 ovarian was greater than 100 µM in each case. Also, the GI50 in the assay on RXF 393 renal, in the assay with SK-MEL-2 melanoma and with SW-620 colon was greater than 100 µM each time. The TGI in the assay on DU-145 prostate, in the assay on HCC-2998 colon, in the assay on MOLT-4 leukemia, with NCI-H460 lung, in the assay on NCI-H522 lung and in the assay on OVCAR-5 ovarian was greater than 100 µM in each case. The TGI in the assay on RXF 393 renal, in the assay on SK-MEL-2 melanoma and in the assay on SW-620 colon was greater than 100 µM each time.
As for `CCOC(=O)C1S(=O)(=O)OCCOS1(=O)=O`, the TGI in the assay on HCC-2998 colon, with MOLT-4 leukemia, in the assay with NCI-H522 lung, with SK-MEL-2 melanoma, in the assay on SR leukemia and in the assay on SW-620 colon was greater than 100 µM in each case.
For the compound `CC12OC(=O)C(C#N)C1(C)C1C(=O)CCCC12` (stereo not drawn), the TGI in the assay on MOLT-4 leukemia, with NCI-H460 lung, in the assay with OVCAR-5 ovarian, in the assay with RXF 393 renal, in the assay on SK-MEL-2 melanoma and in the assay with SW-620 colon was greater than 100 µM throughout.
As for `Cc1nc2ccccc2c(=O)n1/N=C(\N=Nc1ccccc1Cl)c1ccccc1Cl`, the TGI in the assay on MOLT-4 leukemia was greater than 100 µM; in the assay on NCI-H460 lung, greater than 100 µM; in the assay on NCI-H522 lung it was 98.4 µM; in the assay with RXF 393 renal, 40.5 µM; with SW-620 colon it was greater than 100 µM.
As for `CCCC(=O)CC(C)C(=O)C(=O)NC12CC3CC(CC(C3)C1)C2` (stereo not drawn), the TGI in the assay on HCC-2998 colon, with MOLT-4 leukemia, in the assay with NCI-H460 lung, with NCI-H522 lung, in the assay on OVCAR-5 ovarian and in the assay on RXF 393 renal was greater than 100 µM throughout. The TGI with SK-MEL-2 melanoma and in the assay on SW-620 colon was greater than 100 µM throughout.
`Nc1nc(=S)c2c(ncn2CCO)[nH]1`: the TGI in the assay on HCC-2998 colon, in the assay on NCI-H460 lung, in the assay with NCI-H522 lung, with OVCAR-5 ovarian, in the assay with RXF 393 renal and with SK-MEL-2 melanoma was greater than 100 µM throughout. Also, the TGI in the assay on SW-620 colon was greater than 100 µM.
With `c1ccc(C(c2ccccc2)c2ccccn2)cc1`, the TGI in the assay on HCC-2998 colon, in the assay on NCI-H460 lung, in the assay on OVCAR-5 ovarian, in the assay on SK-MEL-2 melanoma and in the assay with SW-620 colon was greater than 100 µM in each case.
With `COc1ccc(/C=C2\CCC/C(=C\c3ccc(OC)c(OC)c3)C2=O)cc1OC`, the GI50 was 1.28 µM with DU-145 prostate; greater than 32.5 µM with HCC-2998 colon; 4.74 µM in the assay on MOLT-4 leukemia; 1.61 µM with NCI-H460 lung; 2.19 µM in the assay on NCI-H522 lung; 25 µM in the assay with OVCAR-5 ovarian. Moreover, the GI50 in the assay on RXF 393 renal is 0.613 µM; in the assay on SK-MEL-2 melanoma it was 5.02 µM; in the assay with SW-620 colon it was 1.49 µM. The TGI with DU-145 prostate was 9.89 µM; in the assay with HCC-2998 colon, greater than 32.5 µM; with MOLT-4 leukemia, greater than 32.5 µM; with NCI-H460 lung, greater than 32.5 µM; in the assay on NCI-H522 lung, 15.4 µM; in the assay on OVCAR-5 ovarian, greater than 32.5 µM. Moreover, the TGI with RXF 393 renal is 3.18 µM; in the assay on SK-MEL-2 melanoma it was 15.2 µM; with SW-620 colon, 24.1 µM.

Values taken from PubChem BioAssay (NCI).
